For 13 molecules, TGI and GI50 results are on record in PubChem BioAssay (NCI).

SMILES strings stand for the structures.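 Values below derive from 48-hour exposures of cells grown in 96-well plates, with endpoints linearly interpolated between the two concentrations bracketing the appropriate inhibition level. GI50 marks 50% less growth. TGI: concentration producing complete growth inhibition.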

Test systems include SF-268 CNS; MOLT-4 leukemia; A549 NSCLC; ACHN renal; A498 renal; OVCAR-3 ovarian; COLO 205 colon; BT-549 breast; MDA-MB-435; MCF7 breast.
Holding throughout (experiment): DTP human tumour cell line panel, 48 h

`CC1(O)CC2C(CC1SCCO)C2(C)C` (stereo not drawn): the concentration for total growth inhibition (TGI) in the assay on SF-268 CNS, in the assay with MOLT-4 leukemia, in the assay on A549 NSCLC, in the assay with ACHN renal, in the assay with A498 renal and with OVCAR-3 ovarian was more than 100 µM in each case. For the same molecule, in the assay with COLO 205 colon, the TGI (in general, the concentration at which net growth stops) is more than 100 µM.

`Brc1ccc([I+]c2ccc(Br)cc2)cc1`: the GI50 – broadly, the concentration that inhibits growth by half – is 2.02 µM in the assay with BT-549 breast; 1.03 µM in the assay with SF-268 CNS; 1.94 µM with MDA-MB-435; 5.2 µM with A549 NSCLC; 0.825 µM with MCF7 breast; 4.47 µM in the assay with ACHN renal. In addition, the GI50 in the assay with A498 renal was 1.97 µM; in the assay with OVCAR-3 ovarian it was 1.19 µM; in the assay on COLO 205 colon, 1.18 µM. For the same molecule, the total growth inhibition concentration (TGI) came to 12.3 µM in the assay on BT-549 breast; 2.4 µM in the assay on SF-268 CNS; 17 µM with MDA-MB-435; 20.2 µM in the assay on A549 NSCLC; 10.2 µM with MCF7 breast; 21 µM in the assay on ACHN renal. Further, the TGI is 10.7 µM with A498 renal, 3.06 µM in the assay with OVCAR-3 ovarian and 2.68 µM in the assay on COLO 205 colon.

`O=C(COc1cccc(/C=C2\COc3ccccc3C2=O)c1)Nc1nccs1`: the GI50 in the assay on SF-268 CNS is 1.95 µM; with MDA-MB-435, 2.51 µM; in the assay with A549 NSCLC, 2.41 µM; in the assay with MCF7 breast it was 1.24 µM; in the assay on ACHN renal it was 1.86 µM; in the assay on A498 renal, 15.7 µM. The values for the GI50 in the assay on OVCAR-3 ovarian and in the assay with COLO 205 colon were 2.03 µM and 2.26 µM, respectively. In addition, the concentration for total growth inhibition (TGI) in the assay with SF-268 CNS was determined as 3.69 µM; with MDA-MB-435, 7.53 µM; in the assay with A549 NSCLC, 6.22 µM; in the assay with MCF7 breast it was 5.69 µM; in the assay with ACHN renal, 3.55 µM; with A498 renal, 29.2 µM. Moreover, the TGI in the assay with OVCAR-3 ovarian was determined as 3.51 µM; with COLO 205 colon, 5.24 µM.

For the molecule `CC1=CC(C)(C)N=C2SC(c3ccc(Cl)cc3)=NN12`, the TGI in the assay on SF-268 CNS was more than 100 µM; in the assay with MOLT-4 leukemia it was 51 µM; with A549 NSCLC, more than 100 µM; in the assay on ACHN renal it was more than 100 µM; in the assay with A498 renal it was 83.6 µM; in the assay with OVCAR-3 ovarian, 92.1 µM. In the assay with COLO 205 colon, this molecule showed a TGI of more than 100 µM.

Regarding `O=C(O)/C(=C/c1ccccc1[N+](=O)[O-])c1ccccc1`, the concentration for total growth inhibition (TGI) with SF-268 CNS, with MOLT-4 leukemia, in the assay with A549 NSCLC, with ACHN renal, with A498 renal and in the assay on OVCAR-3 ovarian was more than 100 µM each time. Also, the TGI with COLO 205 colon is more than 100 µM.

Consider `CN1CCN(c2ccc3c4c(cccc24)C(=O)N(CCN2CCN(CCCN4CCN(CCN5C(=O)c6cccc7c(N8CCN(C)CC8)ccc(c67)C5=O)CC4)CC2)C3=O)CC1`, for which the GI50 with BT-549 breast is 9.92 µM; in the assay with SF-268 CNS, 4.57 µM; with MDA-MB-435, 7.34 µM; in the assay with A549 NSCLC it was 7.37 µM; in the assay on MCF7 breast, 5.06 µM; in the assay with ACHN renal, 3.13 µM. The GI50 was 9.79 µM with A498 renal, 8.2 µM with OVCAR-3 ovarian and 5.6 µM in the assay on COLO 205 colon. In addition, the concentration for total growth inhibition (TGI) in the assay with BT-549 breast worked out at 19.7 µM; in the assay on SF-268 CNS, 47.5 µM; in the assay on MDA-MB-435, 15.5 µM; with A549 NSCLC, 15 µM; in the assay with MCF7 breast it was 18.5 µM; with ACHN renal, 9.72 µM. In addition, the TGI is 17.4 µM in the assay with A498 renal, 15.8 µM with OVCAR-3 ovarian and 21.8 µM in the assay on COLO 205 colon.

`O=C(N/N=C1\CCc2ccccc2C1)N/N=C1\CCc2ccccc2C1`: the concentration for total growth inhibition (TGI) in the assay with BT-549 breast, in the assay with SF-268 CNS, with MOLT-4 leukemia, with MDA-MB-435, in the assay on A549 NSCLC and with MCF7 breast was more than 10 µM each time. The TGI in the assay on ACHN renal, with OVCAR-3 ovarian and with COLO 205 colon was more than 10 µM in each case.

`CCC[CH2][Sn]([CH2]CCC)([O]C(=O)c1cccc(F)c1)[O]C(=O)c1cccc(F)c1`: the GI50 in the assay on SF-268 CNS was 1.16 µM; in the assay on MOLT-4 leukemia it was 0.363 µM; with A549 NSCLC it was 2.89 µM; in the assay on ACHN renal, 1.3 µM; with A498 renal, 0.467 µM; in the assay on OVCAR-3 ovarian, 0.956 µM. Also, the GI50 in the assay on COLO 205 colon is 0.852 µM. Moreover, the TGI in the assay with SF-268 CNS was found to be 2.53 µM; in the assay with MOLT-4 leukemia it was 2.41 µM; with A549 NSCLC, 9.45 µM; in the assay with ACHN renal, 2.59 µM; with A498 renal, 1.98 µM; in the assay on OVCAR-3 ovarian, 2.17 µM. For the same molecule, in the assay on COLO 205 colon, the total growth inhibition concentration (TGI) worked out at 2.18 µM.

On to `CC(=O)OC12c3ccccc3C1CCCCCC21OCCCO1` (stereo not drawn), for which the TGI with SF-268 CNS, in the assay with MOLT-4 leukemia, in the assay with A549 NSCLC, with ACHN renal, with A498 renal and in the assay on OVCAR-3 ovarian was more than 100 µM in each case. In the assay on COLO 205 colon, this molecule gave a concentration for total growth inhibition (TGI) of more than 100 µM.

Regarding `O=c1cc(Cl)nc[nH]1`, the TGI in the assay on SF-268 CNS, in the assay with MOLT-4 leukemia, with A549 NSCLC, in the assay with ACHN renal, in the assay with A498 renal and with OVCAR-3 ovarian was more than 100 µM in each case. The same molecule showed a TGI in the assay on COLO 205 colon of more than 100 µM.

For `Cc1cc(NS(=O)(=O)c2ccc(NC(=O)c3cccc4c(N)c5ccccc5nc34)cc2)no1`, the concentration for total growth inhibition (TGI) in the assay on SF-268 CNS was 76.9 µM; with MOLT-4 leukemia, more than 100 µM; in the assay with A549 NSCLC, more than 100 µM; in the assay with ACHN renal, 46.6 µM; in the assay with A498 renal, 52 µM; with OVCAR-3 ovarian it was 52.8 µM. For the same molecule, the total growth inhibition concentration (TGI) in the assay on COLO 205 colon amounted to 53.6 µM.

For the molecule `COc1ccc2c3c1C(=O)CCC3CO2` (stereo not drawn), the TGI with SF-268 CNS, with MOLT-4 leukemia, in the assay with A549 NSCLC, in the assay on ACHN renal, in the assay with A498 renal and with OVCAR-3 ovarian was more than 100 µM each time. Besides, the concentration for total growth inhibition (TGI) in the assay on COLO 205 colon is more than 100 µM.

Consider `CCCCCCCCCCCCCCCC(=O)OCC(O)C1OC(=O)C(O)=C1O` (stereo not drawn), for which the TGI in the assay with SF-268 CNS is 60.4 µM; in the assay with MOLT-4 leukemia, more than 100 µM; with MDA-MB-435 it was 42.4 µM; in the assay with A549 NSCLC, 42.9 µM; in the assay on MCF7 breast, 4.81 µM; in the assay with ACHN renal it was 98.7 µM. The TGI in the assay with A498 renal was 77 µM; in the assay with OVCAR-3 ovarian it was more than 100 µM; in the assay on COLO 205 colon, more than 100 µM.
